{"source": "patent US20120220488A1", "about": "“HEART AGING BIOMARKERS AND METHODS OF USE” (priority 2009, published 2012)", "assay_type_in_all_cases": "in vivo", "key": {"Akt1": {"tested_on": "Akt1", "experiment": "Microarray gene expression in heart tissue, Study 2", "details": "Study 2, mouse heart tissue, old (30) + Resveratrol vs old; probe 1425711_a_at", "excerpt": "(§1) Two public rodent cardiac aging gene expression data sets were selected from the NCBI's Gene Expression Omnibus (GEO): (1) The University of Washington's rat study (UW) (Linford J L et al. (2007) Transcriptional Response to Aging and Calorie Restriction in Heart and Adipose Tissue. Aging Cell 6: 673-688)) (Study 1); and (2) LifeGen's mouse study (Barger J L et al. (2008) A Low Dose of Dietary Resveratrol partially Mimics Calorie Restriction and Retards Aging Parameters in Mice. PLoS ONE 3(6): 1-10) (Study 2). Materials and methods for the two studies are shown in the references. A third data set came from an unpublished mouse cardiac aging study. In that study, mice were divided into two groups (n=7) and were fed with control diet according to the proceedings in the Barger study. Mice were sacrificed at the ages of 5 months (young group) and 25 months (old group). Heart tissues were collected and subject to microarray gene expression assays (Study 3). In Study 2 and Study 3, Affymetrix mouse genome 430 2.0 gene chips were used. In Study 1, Affymetrix rat genome 230 2.0 gene chips were used. A description of the three studies is outlined in Table 1.\n(§2) Data were first inspected for quality and examined for possible outliers. Three samples, one from each Study, were identified as outliers and were removed from further analysis. Differential genes were identified between young and old groups in each Study using Significance Analysis of Microarrays (SAM) algorithm (Tusher, Tibshirani and Chu (2001) Significance analysis of microarrays applied to the ionizing radiation response. PNAS 2001 98: 5116-5121). The selection criteria include magnitude of expression change (fold>=1.2) and false discovery rate (FDR<0.5%).\n(§3) Genes in the Wnt pathway were further examined for their expressional changes. […] Those genes/proteins are listed in Table 2, along with respective representative GenBank Accession Numbers, and the Study 2 results are shown in Table 3. The expression of these genes was also examined in the calorie restricted (CR) group and resveratrol (“Resv”) group."}, "Camk2d": {"tested_on": "Camk2d", "experiment": "Microarray gene expression in heart tissue, Study 2", "details": "Study 2, mouse heart tissue, old (30) + Resveratrol vs old; probe 1427763_a_at", "excerpt": "as §1, §2, §3"}, "Ccnd1": {"tested_on": "Ccnd1", "experiment": "Microarray gene expression in heart tissue, Study 2", "details": "Study 2, mouse heart tissue, old (30) + Resveratrol vs old; probe 1448698_at", "excerpt": "as §1, §2, §3"}, "Dab2": {"tested_on": "Dab2", "experiment": "Microarray gene expression in heart tissue, Study 2", "details": "Study 2, mouse heart tissue, old (30) + Resveratrol vs old; probe 1430604_a_at", "excerpt": "as §1, §2, §3"}, "Dlgh1": {"tested_on": "Dlgh1", "experiment": "Microarray gene expression in heart tissue, Study 2", "details": "Study 2, mouse heart tissue, old (30) + Resveratrol vs old; probe 1450768_at", "excerpt": "as §1, §2, §3"}, "Magi3": {"tested_on": "Magi3", "experiment": "Microarray gene expression in heart tissue, Study 2", "details": "Study 2, mouse heart tissue, old (30) + Resveratrol vs old; probe 1421035_a_at", "excerpt": "as §1, §2, §3"}, "Mapk1": {"tested_on": "Mapk1", "experiment": "Microarray gene expression in heart tissue, Study 2", "details": "Study 2, mouse heart tissue, old (30) + Resveratrol vs old; probe 1426585_s_at", "excerpt": "as §1, §2, §3"}, "Mark2": {"tested_on": "Mark2", "experiment": "Microarray gene expression in heart tissue, Study 2", "details": "Study 2, mouse heart tissue, old (30) + Resveratrol vs old; probe 1435889_at", "excerpt": "as §1, §2, §3"}, "Pias4": {"tested_on": "Pias4", "experiment": "Microarray gene expression in heart tissue, Study 2", "details": "Study 2, mouse heart tissue, old (30) + Resveratrol vs old; probe 1455394_at", "excerpt": "as §1, §2, §3"}, "Rac1": {"tested_on": "Rac1", "experiment": "Microarray gene expression in heart tissue, Study 2", "details": "Study 2, mouse heart tissue, old (30) + Resveratrol vs old; probe 1423734_at", "excerpt": "as §1, §2, §3"}, "Senp2": {"tested_on": "Senp2", "experiment": "Microarray gene expression in heart tissue, Study 2", "details": "Study 2, mouse heart tissue, old (30) + Resveratrol vs old; probe 1425465_a_at", "excerpt": "as §1, §2, §3"}, "Smad3": {"tested_on": "Smad3", "experiment": "Microarray gene expression in heart tissue, Study 2", "details": "Study 2, mouse heart tissue, old (30) + Resveratrol vs old; probe 1450471_at", "excerpt": "as §1, §2, §3"}, "Ctnnb1 (beta-catenin)": {"tested_on": "Ctnnb1 (beta-catenin)", "experiment": "Microarray gene expression in heart tissue, Study 2", "details": "Study 2, mouse heart tissue, old (30) + Resveratrol vs old; for Fold Change Resv vs. Old, Ctnnb1(1): Ctnnb1 probe 1", "excerpt": "as §1, §2\nGenes in the Wnt pathway were further examined for their expressional changes. […] Those genes/proteins are listed in Table 2, along with respective representative GenBank Accession Numbers, and the Study 2 results are shown in Table 3. The expression of these genes was also examined in the calorie restricted (CR) group and resveratrol (“Resv”) group. […]"}, "Wnt pathway genes": {"tested_on": "Wnt pathway genes", "experiment": "Wnt pathway gene expression in aged heart, Study 2", "details": "Study 2, mouse aged heart; all but three of the genes of Table 2/3", "excerpt": "as §1, with “Mice were sacrificed at the ages of 5 months (young group) and 25 months (old group). Heart tissues were collected and subject to microarray gene expression assays (Study 3). In Study 2 and Study 3, Affymetrix mouse genome 430 2.0 gene chips were used. In Study 1, Affymetrix rat genome 230 2.0 gene chips were used. A description of the three studies is outlined in Table 1.” left out\nTo determine the impact of gene expression changes in the systems level, pathway analysis was conducted on the data sets from Study 2 and Study 3 using GenMAPP and MAPPFinder software (Salomonis, K Hanspers, A C Zambon, K Vranizan, S C Lawlor, K D Dahlquist, S W Doniger, J Stuart, B R Conklin, and A R Pico. GenMAPP 2: new features and resources for pathway analysis. BMC Bioinformatics, June 2007; 8: 217). […] The inventors determined that the Wnt signaling pathway was among those with most significant associations (adjusted p value of 0.011 in both the Study 2 and Study 3 data sets). […]"}}, "data": [{"molecule": "Oc1ccc(C=Cc2cc(O)cc(O)c2)cc1", "note": "[Resv, resveratrol]", "values": [{"measurement": "Fold Change Resv vs. Old, Akt1", "setting": "Akt1", "result": "−1.315", "unit": "fold"}, {"measurement": "Fold Change Resv vs. Old, Camk2d", "setting": "Camk2d", "result": 1.235, "unit": "fold"}, {"measurement": "Fold Change Resv vs. Old, Ccnd1", "setting": "Ccnd1", "result": "−1.158", "unit": "fold"}, {"measurement": "Fold Change Resv vs. Old, Dab2", "setting": "Dab2", "result": 1.227, "unit": "fold"}, {"measurement": "Fold Change Resv vs. Old, Dlgh1", "setting": "Dlgh1", "result": 1.150, "unit": "fold"}, {"measurement": "Fold Change Resv vs. Old, Magi3", "setting": "Magi3", "result": 1.244, "unit": "fold"}, {"measurement": "Fold Change Resv vs. Old, Mapk1", "setting": "Mapk1", "result": "−1.020", "unit": "fold"}, {"measurement": "Fold Change Resv vs. Old, Mark2", "setting": "Mark2", "result": "−2.113", "unit": "fold"}, {"measurement": "Fold Change Resv vs. Old, Pias4", "setting": "Pias4", "result": "−1.495", "unit": "fold"}, {"measurement": "Fold Change Resv vs. Old, Rac1", "setting": "Rac1", "result": 1.509, "unit": "fold"}, {"measurement": "Fold Change Resv vs. Old, Senp2", "setting": "Senp2", "result": 1.261, "unit": "fold"}, {"measurement": "Fold Change Resv vs. Old, Smad3", "setting": "Smad3", "result": 1.285, "unit": "fold"}, {"measurement": "Fold Change Resv vs. Old, Ctnnb1(1)", "setting": "Ctnnb1 (beta-catenin)", "result": 2.787, "unit": "fold"}, {"measurement": "Fold Change Resv vs. Old, Ctnnb1(1)", "setting": "Ctnnb1 (beta-catenin); listed as Resveratrol", "result": 2.79, "unit": "fold"}, {"measurement": "Fold Change Resv vs. Old, Ctnnb1(2)", "setting": "Ctnnb1 (beta-catenin); Ctnnb1 probe 2", "result": 2.017, "unit": "fold"}, {"measurement": "Expression of Wnt pathway genes decreased in aged heart, after treatment", "setting": "Wnt pathway genes", "result": "elevated to their young levels"}]}]}
